The values that follow come from patent publication US12441726B2, “Compounds and uses thereof” (Foghorn Therapeutics Inc., priority 2020, dated 2025).

By IC50 is commonly meant the concentration that inhibits the measured activity by half. Lower therefore signals greater potency.

Assay [1] concerns the target BRG-1 (Homo sapiens, UniProt P51532). The experiment in a line: ATPase catalytic activity assay (ADP-Glo), BRG-1. Particulars: for Emax: 1 h, read-out: BRG1 Max % Inhibition, ADP-Glo, 30 nM BRG-1, 400 μM ATP. For orientation: ADP-Glo first removes unused ATP, then detects ADP through luciferase.
Method: The ATPase catalytic activity of BRM or BRG-1 was measured by an in vitro biochemical assay using ADP-Glo™ (Promega, V9102). The ADP-Glo™ kinase assay is performed in two steps once the reaction is complete. The first step is to deplete any unconsumed ATP in the reaction. The second step is to convert the reaction product ADP to ATP, which will be utilized by the luciferase to generate luminesce and be detected by a luminescence reader, such as Envision.
Then following addition of 5 μL of ADP-Glo™ Reagent provided in the kit, the reaction incubates at room temperature for 40 minutes. Then 10 μL of Kinase Detection Reagent provided in the kit is added to convert ADP to ATP, and the reaction incubates at room temperature for 60 minutes. Finally, luminescence measurement is collected with a plate-reading luminometer, such as Envision.
The target of assay [2] is BRM (Homo sapiens, UniProt P51531). The assay can be described thus: ATPase catalytic activity assay (ADP-Glo), BRM. The conditions noted are these: 30 nM BRM, 400 μM ATP; for IC50: BRM ATPase: IC50 (uM).
BRM, sequence (P51531 whole entry): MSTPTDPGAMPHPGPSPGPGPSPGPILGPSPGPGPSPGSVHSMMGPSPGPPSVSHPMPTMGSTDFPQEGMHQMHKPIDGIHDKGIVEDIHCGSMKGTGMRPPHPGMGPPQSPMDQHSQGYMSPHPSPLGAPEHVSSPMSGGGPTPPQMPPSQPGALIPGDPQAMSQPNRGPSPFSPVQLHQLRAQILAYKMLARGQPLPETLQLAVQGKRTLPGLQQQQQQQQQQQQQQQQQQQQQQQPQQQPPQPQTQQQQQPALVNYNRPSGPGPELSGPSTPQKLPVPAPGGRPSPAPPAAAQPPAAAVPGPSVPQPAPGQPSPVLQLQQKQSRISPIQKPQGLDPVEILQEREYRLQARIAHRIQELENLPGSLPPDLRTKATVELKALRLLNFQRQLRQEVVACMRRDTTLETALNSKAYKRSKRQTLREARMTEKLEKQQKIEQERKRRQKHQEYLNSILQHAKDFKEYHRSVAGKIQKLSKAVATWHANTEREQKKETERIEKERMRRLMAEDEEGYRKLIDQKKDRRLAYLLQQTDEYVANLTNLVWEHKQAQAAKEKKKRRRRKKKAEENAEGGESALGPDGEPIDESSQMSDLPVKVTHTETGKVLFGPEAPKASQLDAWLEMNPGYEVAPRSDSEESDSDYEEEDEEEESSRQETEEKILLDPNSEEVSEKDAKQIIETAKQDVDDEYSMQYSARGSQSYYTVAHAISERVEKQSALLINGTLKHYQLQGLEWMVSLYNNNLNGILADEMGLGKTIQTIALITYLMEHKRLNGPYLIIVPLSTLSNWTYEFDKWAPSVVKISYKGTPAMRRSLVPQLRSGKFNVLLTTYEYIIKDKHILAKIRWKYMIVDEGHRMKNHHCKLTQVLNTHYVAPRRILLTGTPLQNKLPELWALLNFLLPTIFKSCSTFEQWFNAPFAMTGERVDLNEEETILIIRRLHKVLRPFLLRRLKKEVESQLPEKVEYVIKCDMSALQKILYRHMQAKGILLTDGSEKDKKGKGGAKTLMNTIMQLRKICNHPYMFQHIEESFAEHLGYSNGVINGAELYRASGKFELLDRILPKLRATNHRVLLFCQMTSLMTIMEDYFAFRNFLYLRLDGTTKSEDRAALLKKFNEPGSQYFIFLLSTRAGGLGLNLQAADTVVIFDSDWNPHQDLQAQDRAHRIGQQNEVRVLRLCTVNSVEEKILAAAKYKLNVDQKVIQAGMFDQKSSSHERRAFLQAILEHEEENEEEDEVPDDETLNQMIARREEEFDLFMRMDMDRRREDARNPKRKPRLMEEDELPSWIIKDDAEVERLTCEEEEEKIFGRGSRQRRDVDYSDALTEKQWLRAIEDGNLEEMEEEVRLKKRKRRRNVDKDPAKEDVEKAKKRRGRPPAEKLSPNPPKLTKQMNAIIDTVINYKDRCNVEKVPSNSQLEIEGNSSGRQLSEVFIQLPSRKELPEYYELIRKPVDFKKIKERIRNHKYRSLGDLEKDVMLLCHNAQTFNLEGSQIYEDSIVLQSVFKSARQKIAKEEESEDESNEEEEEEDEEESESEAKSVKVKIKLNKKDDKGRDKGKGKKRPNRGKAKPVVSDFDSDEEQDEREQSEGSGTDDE

A value given as a limit tells only on which side of the number the result lay.

BRG-1, sequence (P51532 whole entry): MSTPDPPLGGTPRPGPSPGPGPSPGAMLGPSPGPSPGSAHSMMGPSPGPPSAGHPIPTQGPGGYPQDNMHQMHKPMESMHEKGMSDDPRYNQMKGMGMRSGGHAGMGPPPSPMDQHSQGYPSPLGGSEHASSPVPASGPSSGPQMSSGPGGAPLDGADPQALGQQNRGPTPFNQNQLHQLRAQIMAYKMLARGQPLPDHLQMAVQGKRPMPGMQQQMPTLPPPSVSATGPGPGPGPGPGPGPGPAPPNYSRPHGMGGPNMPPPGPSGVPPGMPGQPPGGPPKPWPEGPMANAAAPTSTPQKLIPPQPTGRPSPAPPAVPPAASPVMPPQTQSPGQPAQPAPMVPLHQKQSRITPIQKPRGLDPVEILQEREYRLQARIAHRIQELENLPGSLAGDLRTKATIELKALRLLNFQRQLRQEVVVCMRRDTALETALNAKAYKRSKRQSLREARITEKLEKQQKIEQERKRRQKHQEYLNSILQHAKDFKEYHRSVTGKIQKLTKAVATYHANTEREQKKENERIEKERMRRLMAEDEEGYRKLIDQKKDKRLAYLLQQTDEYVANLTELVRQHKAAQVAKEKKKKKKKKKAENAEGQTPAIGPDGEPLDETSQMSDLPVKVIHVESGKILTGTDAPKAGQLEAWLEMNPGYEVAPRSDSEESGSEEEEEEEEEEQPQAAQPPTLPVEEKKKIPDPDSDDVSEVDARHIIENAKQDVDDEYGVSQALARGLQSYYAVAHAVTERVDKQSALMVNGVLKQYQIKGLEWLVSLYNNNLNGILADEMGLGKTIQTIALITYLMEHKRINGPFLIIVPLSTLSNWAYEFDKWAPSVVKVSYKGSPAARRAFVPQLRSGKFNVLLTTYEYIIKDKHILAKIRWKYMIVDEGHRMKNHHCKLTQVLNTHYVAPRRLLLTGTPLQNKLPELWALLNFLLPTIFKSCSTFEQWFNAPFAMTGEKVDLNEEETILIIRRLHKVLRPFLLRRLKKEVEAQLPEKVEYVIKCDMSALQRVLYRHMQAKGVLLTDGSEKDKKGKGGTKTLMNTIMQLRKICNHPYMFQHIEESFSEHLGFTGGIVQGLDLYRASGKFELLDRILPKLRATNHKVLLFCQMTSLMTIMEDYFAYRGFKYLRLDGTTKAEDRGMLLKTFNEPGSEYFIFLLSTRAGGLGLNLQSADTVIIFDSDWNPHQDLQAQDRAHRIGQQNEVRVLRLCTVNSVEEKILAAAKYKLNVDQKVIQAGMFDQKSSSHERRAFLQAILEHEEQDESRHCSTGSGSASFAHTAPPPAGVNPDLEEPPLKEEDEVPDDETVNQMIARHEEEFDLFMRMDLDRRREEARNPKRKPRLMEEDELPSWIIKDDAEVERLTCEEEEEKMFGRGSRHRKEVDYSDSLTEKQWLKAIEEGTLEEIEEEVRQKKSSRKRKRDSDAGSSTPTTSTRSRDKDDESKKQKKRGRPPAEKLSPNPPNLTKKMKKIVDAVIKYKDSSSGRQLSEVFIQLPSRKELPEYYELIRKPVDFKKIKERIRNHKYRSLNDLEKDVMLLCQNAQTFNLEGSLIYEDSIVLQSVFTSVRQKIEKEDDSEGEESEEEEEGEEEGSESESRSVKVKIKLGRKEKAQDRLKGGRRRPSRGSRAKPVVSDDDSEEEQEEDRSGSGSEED

Take `COc1cccc(/C=C/c2ccnc(CNC(=O)c3ccc4c(c3)[C@](C)(C#N)COC4)c2)c1` [Compound 38]: in assay [1], the IC50 is more than 1000 nM and the Emax amounted to 86%. Besides, in assay [2], the “BRM Max % Inhibition” value turned out to be 97% and the IC50 was less than 0.1 µM.
With `COC(=O)c1cccc(C#Cc2ccnc(CNC(=O)c3ccc4c(c3)[C@](C)(C#N)CCN4)c2)c1` [Compound 39], in assay [1], the IC50 was more than 1000 nM and the Emax is 28%. Moreover, in assay [2], the “BRM Max % Inhibition” value is given as 75% and the IC50 was more than 1 µM.
In the case of `C[C@@]1(C#N)COCc2ccc(C(=O)NCc3cc(OCc4cccc(N5CCC5)c4)ccn3)cc21` [Compound 40], in assay [1], the IC50 was more than 1000 nM and the Emax was determined as 67%. For the same compound, in assay [2], the “BRM Max % Inhibition” value was determined as 96% and the IC50 was 0.1 to 0.5 µM.
Turning to `COC[C@H](NC(=O)c1ccc2c(c1)[C@](C)(C#N)COC2)c1cc(/C=C/c2ccccc2)ccn1` [Compound 41], in assay [1], the IC50 was more than 1000 nM and the Emax was 55%. In addition, in assay [2], the “BRM Max % Inhibition” value came to 85% and the 50% inhibitory concentration (IC50) fell in the range of 0.5 to 1 µM.
Taken in the same sequence, the figures for `C[C@@]1(C#N)COCc2ccc(C(=O)NCc3cc(N4CCN(c5ccccc5)CC4)ccn3)cc21` [Compound 42] were 500 to 1000 nM, 84%, 97% and 0.1 to 0.5 µM.
Turning to `COC[C@H](NC(=O)c1ccc2c(c1)[C@](C)(C#N)COC2)c1cc(C#Cc2ccccc2)ccn1` [Compound 43], in assay [1], the IC50 was more than 1000 nM and the Emax came to 34%. In assay [2], the “BRM Max % Inhibition” value is 68% and the IC50 was more than 1 µM.
Turning to `C[C@@]1(C#N)COCc2ccc(C(=O)NCc3cc(N4CCC(c5ccccc5)C4)ccn3)cc21` (stereo partly drawn) [Compound 44], in assay [1], the half-inhibitory concentration (IC50) is more than 1000 nM and the Emax came out at 69%. Also, in assay [2], the “BRM Max % Inhibition” value is given as 97% and the 50% inhibitory concentration (IC50) is 0.1 to 0.5 µM.
For the compound `C[C@@]1(C#N)COCc2ccc(C(=O)NCc3cc(OCc4cc(F)c5c(c4)CCO5)ccn3)cc21` [Compound 45], in assay [1], the IC50 was 500 to 1000 nM and the Emax was determined as 79%. Moreover, in assay [2], the “BRM Max % Inhibition” value worked out at 96% and the concentration for half-maximal inhibition (IC50) is less than 0.1 µM.
For the compound `C[C@@]1(C#N)COCc2ccc(C(=O)NCc3cc(N4CC(c5ccccc5)C4)cnn3)cc21` [Compound 46], in assay [1], the IC50 was more than 1000 nM and the Emax came to 29%. Also, in assay [2], the “BRM Max % Inhibition” value was 78% and the 50% inhibitory concentration (IC50) is more than 1 µM.
Taken in the same sequence, the figures for `O=C(NCc1cc(C#Cc2ccccc2)ccn1)c1ccc2c(c1)[C@@](F)(C(F)F)COC2` [Compound 47] were more than 1000 nM, 47%, 90% and 0.1 to 0.5 µM.
As to `O=C(NCc1cc(C#Cc2ccccc2)ccn1)c1ccc2c(c1)[C@](F)(C(F)F)COC2` [Compound 48], in assay [1], the IC50 was more than 1000 nM and the Emax was 11%. In addition, in assay [2], the “BRM Max % Inhibition” value worked out at 67% and the IC50 was more than 1 µM.
On to `C[C@@]1(C#N)COCc2ccc(C(=O)NCc3cc(N4CCc5ccccc5CC4)ccn3)cc21` [Compound 50], for which, in assay [1], the IC50 was more than 1000 nM and the Emax amounted to 53%. Besides, in assay [2], the “BRM Max % Inhibition” value worked out at 90% and the IC50 was 0.1 to 0.5 µM.
Consider `COc1cc(F)cc2c1CCN(c1ccnc(CNC(=O)c3ccc4c(c3)[C@](C)(C#N)COC4)c1)C2` [Compound 51], for which, in assay [1], the half-maximal inhibitory concentration (IC50) was 100 to 500 nM and the Emax is 94%. For the same compound, in assay [2], the “BRM Max % Inhibition” value was 99% and the IC50 is less than 0.1 µM.
Regarding `C[C@@]1(C#N)COCc2ccc(C(=O)NCc3cc(SCc4ccccc4)ccn3)cc21` [Compound 52], in assay [1], the IC50 is more than 1000 nM and the Emax came out at 34%. In assay [2], the “BRM Max % Inhibition” value turned out to be 86% and the IC50 was in the range of 0.1 to 0.5 µM.
For the compound `C[C@@]1(C#N)COCc2ccc(C(=O)NCc3cc(N4Cc5ccncc5C4)ccn3)cc21` [Compound 53], in assay [1], the IC50 was more than 1000 nM and the Emax is 48%. Moreover, in assay [2], the “BRM Max % Inhibition” value worked out at 88% and the IC50 was 0.1 to 0.5 µM.
